Laboratory results reported in ChEMBL document CHEMBL1828590 (J Med Chem, 2011).

Tests used:
COLO 205 = assay: Antiproliferative activity against human COLO205 cells after 96 hrs by celltiter 96 assay; type: functional, cell-based; settings: COLO 205, 96 h
A2780 = assay: Antiproliferative activity against human A2780 cells after 96 hrs by celltiter 96 assay; type: functional, cell-based; settings: A2780, 96 h
HCT-116 [1] = assay: Antiproliferative activity against human HCT116 cells after 96 hrs by celltiter 96 assay; type: functional, cell-based; settings: HCT-116, 96 h
PC-3 = assay: Antiproliferative activity against human PC3 cells after 96 hrs by celltiter 96 assay; type: functional, cell-based; settings: PC-3, 96 h
Histone deacetylase 1 [2] = molecular target: T1, Histone deacetylase 1 (Homo sapiens, UniProt Q13547)
T1 sequence (Q13547 whole entry): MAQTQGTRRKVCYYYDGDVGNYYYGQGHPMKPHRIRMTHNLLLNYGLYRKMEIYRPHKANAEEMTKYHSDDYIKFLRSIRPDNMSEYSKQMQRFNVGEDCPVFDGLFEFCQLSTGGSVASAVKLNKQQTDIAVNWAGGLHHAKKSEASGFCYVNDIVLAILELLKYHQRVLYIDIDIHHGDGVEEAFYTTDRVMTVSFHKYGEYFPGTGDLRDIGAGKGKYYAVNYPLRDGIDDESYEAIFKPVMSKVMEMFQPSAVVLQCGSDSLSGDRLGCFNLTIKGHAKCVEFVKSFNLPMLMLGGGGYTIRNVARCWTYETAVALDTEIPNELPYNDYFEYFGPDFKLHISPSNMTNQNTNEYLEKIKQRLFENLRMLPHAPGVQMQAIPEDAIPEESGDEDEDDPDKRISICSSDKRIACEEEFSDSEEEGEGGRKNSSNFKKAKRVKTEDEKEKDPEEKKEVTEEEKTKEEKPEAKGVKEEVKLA
Description: Competitive inhibition of HDAC1 using KI-104 as substrate by fluorescence assay

Histone deacetylase 3 = Histone deacetylase 3 (Homo sapiens, UniProt O15379)
Sequence of Histone deacetylase 3 (O15379 whole entry): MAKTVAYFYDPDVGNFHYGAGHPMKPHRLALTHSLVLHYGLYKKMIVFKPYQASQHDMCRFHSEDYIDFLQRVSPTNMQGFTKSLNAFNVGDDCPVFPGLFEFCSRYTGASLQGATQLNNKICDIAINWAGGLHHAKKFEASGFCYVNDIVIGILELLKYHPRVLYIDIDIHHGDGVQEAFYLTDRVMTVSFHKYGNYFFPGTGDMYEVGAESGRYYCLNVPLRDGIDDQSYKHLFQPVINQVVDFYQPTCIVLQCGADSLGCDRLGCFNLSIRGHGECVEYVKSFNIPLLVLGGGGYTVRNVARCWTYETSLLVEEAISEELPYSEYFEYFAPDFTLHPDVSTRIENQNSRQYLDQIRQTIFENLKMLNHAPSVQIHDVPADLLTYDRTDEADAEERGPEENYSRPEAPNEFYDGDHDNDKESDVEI
Description: Competitive inhibition of HDAC3 using KI-104 as substrate by fluorescence assay

Histone deacetylase 4 = Histone deacetylase 4 (Homo sapiens, UniProt P56524)
Sequence of Histone deacetylase 4 (P56524 whole entry): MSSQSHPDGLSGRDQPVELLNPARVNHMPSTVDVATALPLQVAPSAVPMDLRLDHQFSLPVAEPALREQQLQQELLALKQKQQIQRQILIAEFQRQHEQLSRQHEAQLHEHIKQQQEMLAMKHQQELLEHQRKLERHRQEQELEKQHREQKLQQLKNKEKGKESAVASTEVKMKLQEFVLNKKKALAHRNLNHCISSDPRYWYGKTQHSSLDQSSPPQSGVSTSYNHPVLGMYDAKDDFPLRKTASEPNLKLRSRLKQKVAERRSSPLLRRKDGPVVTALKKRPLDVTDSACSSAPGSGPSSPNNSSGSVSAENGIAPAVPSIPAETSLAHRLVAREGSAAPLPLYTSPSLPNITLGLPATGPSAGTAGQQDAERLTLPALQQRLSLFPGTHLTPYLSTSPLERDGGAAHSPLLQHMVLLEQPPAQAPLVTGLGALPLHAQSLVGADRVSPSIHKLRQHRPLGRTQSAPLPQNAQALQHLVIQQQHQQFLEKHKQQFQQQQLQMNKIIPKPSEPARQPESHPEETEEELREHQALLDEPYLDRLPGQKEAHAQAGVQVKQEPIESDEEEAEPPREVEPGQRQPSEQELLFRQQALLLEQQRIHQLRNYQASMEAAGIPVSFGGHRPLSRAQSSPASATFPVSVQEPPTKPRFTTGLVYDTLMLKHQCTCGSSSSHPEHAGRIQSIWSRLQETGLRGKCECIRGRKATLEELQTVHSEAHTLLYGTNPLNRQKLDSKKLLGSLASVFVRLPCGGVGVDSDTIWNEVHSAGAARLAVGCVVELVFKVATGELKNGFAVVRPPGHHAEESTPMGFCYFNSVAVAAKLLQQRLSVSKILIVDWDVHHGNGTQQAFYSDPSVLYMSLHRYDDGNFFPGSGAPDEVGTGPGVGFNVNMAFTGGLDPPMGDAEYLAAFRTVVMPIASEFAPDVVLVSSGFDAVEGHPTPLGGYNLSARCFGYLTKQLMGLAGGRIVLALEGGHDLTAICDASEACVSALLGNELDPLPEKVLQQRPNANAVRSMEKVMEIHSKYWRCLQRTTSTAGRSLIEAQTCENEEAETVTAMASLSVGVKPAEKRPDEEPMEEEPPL
Description: Competitive inhibition of HDAC4 using KI-104 as substrate by fluorescence assay

Histone deacetylase 5 = Histone deacetylase 5 (Homo sapiens, UniProt Q9UQL6)
Sequence of Histone deacetylase 5 (Q9UQL6 whole entry): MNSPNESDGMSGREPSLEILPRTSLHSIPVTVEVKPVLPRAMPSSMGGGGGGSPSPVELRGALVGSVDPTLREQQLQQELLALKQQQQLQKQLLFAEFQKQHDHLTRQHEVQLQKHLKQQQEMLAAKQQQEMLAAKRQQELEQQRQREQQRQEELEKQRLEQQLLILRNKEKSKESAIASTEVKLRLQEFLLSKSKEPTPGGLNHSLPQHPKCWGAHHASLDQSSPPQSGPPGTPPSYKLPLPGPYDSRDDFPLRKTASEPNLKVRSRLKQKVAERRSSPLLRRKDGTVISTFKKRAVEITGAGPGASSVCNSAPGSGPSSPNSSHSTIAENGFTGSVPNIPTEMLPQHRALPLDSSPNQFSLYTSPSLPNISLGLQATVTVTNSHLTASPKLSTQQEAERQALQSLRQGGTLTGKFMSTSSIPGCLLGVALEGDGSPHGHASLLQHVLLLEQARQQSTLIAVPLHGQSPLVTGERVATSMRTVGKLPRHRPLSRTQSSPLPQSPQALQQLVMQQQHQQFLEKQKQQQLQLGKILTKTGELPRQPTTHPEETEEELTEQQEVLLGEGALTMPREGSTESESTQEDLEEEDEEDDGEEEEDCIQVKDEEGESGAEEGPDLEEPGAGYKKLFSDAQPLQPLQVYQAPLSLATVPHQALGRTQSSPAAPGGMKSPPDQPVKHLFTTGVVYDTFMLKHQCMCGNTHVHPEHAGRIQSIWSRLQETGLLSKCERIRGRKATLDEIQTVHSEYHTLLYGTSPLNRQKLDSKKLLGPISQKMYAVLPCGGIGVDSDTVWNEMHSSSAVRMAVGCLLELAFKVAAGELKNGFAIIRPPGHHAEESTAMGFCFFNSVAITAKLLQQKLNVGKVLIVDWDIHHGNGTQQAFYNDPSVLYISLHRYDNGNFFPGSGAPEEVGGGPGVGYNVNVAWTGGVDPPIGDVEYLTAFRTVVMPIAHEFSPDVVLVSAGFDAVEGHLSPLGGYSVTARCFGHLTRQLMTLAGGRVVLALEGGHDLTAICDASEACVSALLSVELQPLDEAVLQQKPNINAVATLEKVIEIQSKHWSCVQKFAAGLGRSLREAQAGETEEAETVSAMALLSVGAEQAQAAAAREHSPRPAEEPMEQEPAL
Description: Competitive inhibition of HDAC5 using KI-104 as substrate by fluorescence assay

[3] = molecular target: T2, Protein deacetylase HDAC6 (Homo sapiens, UniProt Q9UBN7)
T2 sequence (Q9UBN7 whole entry): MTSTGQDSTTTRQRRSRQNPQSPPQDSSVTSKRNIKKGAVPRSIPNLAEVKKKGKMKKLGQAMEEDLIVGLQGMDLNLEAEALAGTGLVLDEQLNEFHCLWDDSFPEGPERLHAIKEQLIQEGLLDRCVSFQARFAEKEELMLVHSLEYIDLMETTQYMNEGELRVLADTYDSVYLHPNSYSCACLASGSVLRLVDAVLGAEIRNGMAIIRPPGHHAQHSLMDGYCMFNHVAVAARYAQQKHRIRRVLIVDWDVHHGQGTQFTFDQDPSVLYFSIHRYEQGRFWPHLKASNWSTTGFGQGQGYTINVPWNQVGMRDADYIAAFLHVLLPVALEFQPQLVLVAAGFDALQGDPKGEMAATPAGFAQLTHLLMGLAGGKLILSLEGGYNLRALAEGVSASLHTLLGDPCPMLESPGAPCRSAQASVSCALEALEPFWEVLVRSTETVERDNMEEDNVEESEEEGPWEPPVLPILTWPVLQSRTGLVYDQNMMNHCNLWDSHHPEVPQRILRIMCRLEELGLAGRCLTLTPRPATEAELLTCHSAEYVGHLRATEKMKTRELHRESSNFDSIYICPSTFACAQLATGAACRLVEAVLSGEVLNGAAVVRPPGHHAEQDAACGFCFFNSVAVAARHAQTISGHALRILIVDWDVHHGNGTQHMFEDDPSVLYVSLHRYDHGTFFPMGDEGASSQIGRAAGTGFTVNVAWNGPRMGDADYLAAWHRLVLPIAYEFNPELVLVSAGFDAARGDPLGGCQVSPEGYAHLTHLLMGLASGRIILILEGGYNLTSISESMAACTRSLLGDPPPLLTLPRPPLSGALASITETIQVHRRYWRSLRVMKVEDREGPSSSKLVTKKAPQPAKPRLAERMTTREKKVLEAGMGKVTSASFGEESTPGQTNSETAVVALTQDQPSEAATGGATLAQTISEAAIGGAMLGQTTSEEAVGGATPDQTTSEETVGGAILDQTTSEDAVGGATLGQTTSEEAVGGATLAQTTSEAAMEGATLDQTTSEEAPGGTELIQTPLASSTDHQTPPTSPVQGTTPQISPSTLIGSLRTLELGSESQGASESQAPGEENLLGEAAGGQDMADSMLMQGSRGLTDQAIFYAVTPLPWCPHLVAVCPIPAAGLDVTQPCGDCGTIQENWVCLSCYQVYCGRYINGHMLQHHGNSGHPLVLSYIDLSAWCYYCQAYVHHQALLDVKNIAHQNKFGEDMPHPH
Description: Competitive inhibition of HDAC6 using KI-104 as substrate by fluorescence assay

Histone deacetylase 7 = Histone deacetylase 7 (Homo sapiens, UniProt Q8WUI4)
Description: Competitive inhibition of HDAC7 using KI-104 as substrate by fluorescence assay

Histone deacetylase 8 = molecular target: T3, Histone deacetylase 8 (Homo sapiens, UniProt Q9BY41)
T3 sequence (Q9BY41 whole entry): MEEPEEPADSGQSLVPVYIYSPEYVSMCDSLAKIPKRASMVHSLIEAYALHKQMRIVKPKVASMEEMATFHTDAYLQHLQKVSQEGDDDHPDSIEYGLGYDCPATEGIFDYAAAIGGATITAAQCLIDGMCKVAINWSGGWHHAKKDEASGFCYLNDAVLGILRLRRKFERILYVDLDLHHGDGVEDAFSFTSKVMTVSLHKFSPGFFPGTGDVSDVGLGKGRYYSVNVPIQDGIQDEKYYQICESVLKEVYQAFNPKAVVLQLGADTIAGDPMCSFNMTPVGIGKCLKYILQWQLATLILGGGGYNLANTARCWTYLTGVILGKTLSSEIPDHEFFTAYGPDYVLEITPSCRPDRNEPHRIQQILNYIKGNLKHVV
Description: Competitive inhibition of HDAC8 using KI-104 as substrate by fluorescence assay

Histone deacetylase 9 = Histone deacetylase 9 (Homo sapiens, UniProt Q9UKV0)
Sequence of Histone deacetylase 9 (Q9UKV0 whole entry): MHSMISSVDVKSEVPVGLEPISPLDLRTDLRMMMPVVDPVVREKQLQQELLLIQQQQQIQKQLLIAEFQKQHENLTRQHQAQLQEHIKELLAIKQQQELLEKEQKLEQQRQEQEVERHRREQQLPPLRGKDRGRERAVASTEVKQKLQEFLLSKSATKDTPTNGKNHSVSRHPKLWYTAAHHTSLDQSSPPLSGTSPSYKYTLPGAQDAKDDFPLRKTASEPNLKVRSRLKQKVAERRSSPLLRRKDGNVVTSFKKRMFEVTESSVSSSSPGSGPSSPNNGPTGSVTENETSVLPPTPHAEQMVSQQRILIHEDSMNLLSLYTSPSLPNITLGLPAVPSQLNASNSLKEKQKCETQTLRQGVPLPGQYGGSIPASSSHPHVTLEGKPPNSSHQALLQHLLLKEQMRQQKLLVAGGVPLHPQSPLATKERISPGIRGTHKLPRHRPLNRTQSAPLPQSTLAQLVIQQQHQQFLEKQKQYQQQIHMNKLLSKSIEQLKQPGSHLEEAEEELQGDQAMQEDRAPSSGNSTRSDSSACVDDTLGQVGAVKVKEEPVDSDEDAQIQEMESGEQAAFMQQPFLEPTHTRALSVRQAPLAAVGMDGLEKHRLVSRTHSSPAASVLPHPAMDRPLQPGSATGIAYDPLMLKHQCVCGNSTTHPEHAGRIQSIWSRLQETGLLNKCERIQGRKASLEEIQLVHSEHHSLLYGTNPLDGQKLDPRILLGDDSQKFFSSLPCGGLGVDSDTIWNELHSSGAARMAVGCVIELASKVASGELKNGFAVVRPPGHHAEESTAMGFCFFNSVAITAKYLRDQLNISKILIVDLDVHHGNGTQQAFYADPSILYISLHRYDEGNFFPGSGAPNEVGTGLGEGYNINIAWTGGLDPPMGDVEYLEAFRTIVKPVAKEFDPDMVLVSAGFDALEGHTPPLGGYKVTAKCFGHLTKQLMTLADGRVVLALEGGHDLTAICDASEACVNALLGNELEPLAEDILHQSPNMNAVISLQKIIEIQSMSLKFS
Description: Competitive inhibition of HDAC9 using KI-104 as substrate by fluorescence assay

[4] = molecular target: T4, Polyamine deacetylase HDAC10 (Homo sapiens, UniProt Q969S8)
T4 sequence (Q969S8 whole entry): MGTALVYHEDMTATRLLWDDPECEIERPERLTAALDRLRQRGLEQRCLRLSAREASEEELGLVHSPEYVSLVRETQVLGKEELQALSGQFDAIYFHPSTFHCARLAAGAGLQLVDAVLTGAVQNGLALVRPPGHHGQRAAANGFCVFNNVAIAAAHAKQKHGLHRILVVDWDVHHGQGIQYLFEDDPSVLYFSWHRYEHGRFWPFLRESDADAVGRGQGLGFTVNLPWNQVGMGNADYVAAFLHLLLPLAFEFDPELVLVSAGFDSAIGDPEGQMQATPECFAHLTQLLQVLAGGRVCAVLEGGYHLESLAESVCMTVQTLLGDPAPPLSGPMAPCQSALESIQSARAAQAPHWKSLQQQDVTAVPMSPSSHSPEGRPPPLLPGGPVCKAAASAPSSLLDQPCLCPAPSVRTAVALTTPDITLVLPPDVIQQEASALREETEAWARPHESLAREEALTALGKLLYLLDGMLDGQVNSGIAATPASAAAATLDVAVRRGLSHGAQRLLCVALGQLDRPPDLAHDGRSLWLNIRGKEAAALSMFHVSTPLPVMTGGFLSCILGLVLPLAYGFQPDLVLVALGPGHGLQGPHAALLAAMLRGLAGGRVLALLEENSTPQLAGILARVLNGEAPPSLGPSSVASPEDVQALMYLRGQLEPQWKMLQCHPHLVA
Description: Competitive inhibition of HDAC10 using KI-104 as substrate by fluorescence assay

Histone deacetylase 11 = molecular target: T5, Histone deacetylase 11 (Homo sapiens, UniProt Q96DB2)
T5 sequence (Q96DB2 whole entry): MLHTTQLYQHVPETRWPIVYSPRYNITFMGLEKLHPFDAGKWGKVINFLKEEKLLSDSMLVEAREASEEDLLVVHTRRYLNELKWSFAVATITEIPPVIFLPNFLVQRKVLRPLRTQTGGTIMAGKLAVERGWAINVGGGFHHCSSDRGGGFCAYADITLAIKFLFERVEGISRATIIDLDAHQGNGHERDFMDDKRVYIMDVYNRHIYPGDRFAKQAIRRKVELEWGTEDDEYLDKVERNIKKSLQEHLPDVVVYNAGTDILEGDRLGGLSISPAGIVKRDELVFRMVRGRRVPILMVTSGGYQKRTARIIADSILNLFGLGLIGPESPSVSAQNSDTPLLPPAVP
Description: Competitive inhibition of HDAC11 using KI-104 as substrate by fluorescence assay

Histone deacetylase 1 [5] = molecular target: T1, Histone deacetylase 1; remark: listed apart in the source
Description: Inhibition of full length recombinant HDAC1 using Fluor de Lys as substrate by fluorescence assay

Histone deacetylase 2 = Histone deacetylase 2 (Homo sapiens, UniProt Q92769)
Sequence of Histone deacetylase 2 (Q92769 whole entry): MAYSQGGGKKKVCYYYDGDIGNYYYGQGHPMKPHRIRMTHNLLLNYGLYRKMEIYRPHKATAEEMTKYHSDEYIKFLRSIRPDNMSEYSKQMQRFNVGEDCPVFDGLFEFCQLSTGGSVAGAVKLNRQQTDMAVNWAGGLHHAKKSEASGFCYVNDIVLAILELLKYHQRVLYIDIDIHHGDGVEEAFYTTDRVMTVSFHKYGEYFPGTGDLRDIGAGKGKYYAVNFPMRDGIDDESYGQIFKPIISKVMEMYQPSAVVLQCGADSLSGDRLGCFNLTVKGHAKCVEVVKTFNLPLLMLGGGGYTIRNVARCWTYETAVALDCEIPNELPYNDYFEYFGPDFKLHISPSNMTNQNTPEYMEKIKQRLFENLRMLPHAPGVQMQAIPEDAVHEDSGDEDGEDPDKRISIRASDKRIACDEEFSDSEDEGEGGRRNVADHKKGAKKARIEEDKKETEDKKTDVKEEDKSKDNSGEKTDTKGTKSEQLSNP
Description: Competitive inhibition of HDAC2 using KI-104 as substrate by fluorescence assay

[6] = Half life in human liver microsomes; type: ADME, Microsome
[7] = (§1) Half life in mouse liver microsomes; type: ADME, Microsome; settings: liver microsomes
[8] = Half life in rat liver microsomes; type: ADME, Microsome
[9] = Half life in dog liver microsomes; type: ADME, Canis lupus familiaris, Microsome
[10] = Kinetic solubility of the compound at pH 7 with […] DMSO; type: physicochemical; settings: buffer, read-out: Kinetic_solubility
[11] = Apparent permeability from apical to basolateral side of human Caco2 cells; type: ADME, cell-based; settings: Caco-2
[12] = Apparent permeability from basolateral to apical side of human Caco2 cells; type: ADME, cell-based; settings: Caco-2
Mus musculus [13] = assay: Toxicity in athymic nu/nu Harlan mouse xenografted with human HCT116 cells assessed as mouse survival at 50 mg/kg, po QD for 21 days measured on day 22; type: organism-based, HCT-116; design: dose 50 mg/kg, route oral; settings: in vivo, 504 h
Mus musculus [14] = assay: Toxicity in athymic nu/nu Harlan mouse xenografted with human HCT116 cells assessed as mouse survival at 100 mg/kg, po QD for 21 days measured on day 22; type: organism-based, HCT-116; design: dose 100 mg/kg, route oral; settings: in vivo, 504 h
Mus musculus [15] = assay: Toxicity in athymic nu/nu Harlan mouse xenografted with human HCT116 cells assessed as mouse survival at 200 mg/kg, po QD for 21 days measured on day 22; type: organism-based, HCT-116; design: dose 200 mg/kg, route oral; settings: in vivo, 504 h
HCT-116 [16] = assay: Antitumor activity against human HCT116 cells xenografted in athymic nu/nu Harlan mouse assessed as tumor growth inhibition at 50 mg/kg, po qd for 21 days measured on day 22; type: functional; settings: read-out: TGI
HCT-116 [17] = assay: Antitumor activity against human HCT116 cells xenografted in athymic nu/nu Harlan mouse assessed as tumor growth inhibition at 100 mg/kg, po qd for 21 days measured on day 22; type: functional; settings: read-out: TGI
HCT-116 [18] = assay: Antitumor activity against human HCT116 cells xenografted in athymic nu/nu Harlan mouse assessed as tumor growth inhibition at 200 mg/kg, po qd for 21 days measured on day 22; type: functional; settings: read-out: TGI
Mus musculus [19] = assay: Toxicity in athymic nu/nu Harlan mouse xenografted with human HCT116 cells assessed as body weight loss at 200 mg/kg, po QD for 21 days measured on day 19; type: organism-based, HCT-116; design: dose 200 mg/kg, route oral; settings: in vivo, 504 h
Mus musculus [20] = assay: Toxicity in athymic nu/nu Harlan mouse xenografted with human HCT116 cells assessed as body weight loss at 100 mg/kg, po QD for 21 days measured on day 8; type: organism-based, HCT-116; design: dose 100 mg/kg, route oral; settings: in vivo, 504 h
Liver = assay: as §1; type: ADME, Microsome; settings: microsomes

## CCCCCCc1nc2cc(/C=C/C(=O)NO)ccc2n1CCNC(C)C
COLO 205
  IC50: 170 nM
A2780
  IC50: 200 nM
HCT-116 [1]
  IC50: 210 nM
PC-3
  IC50: 170 nM
Histone deacetylase 1 [2]
  Ki: 20 nM
Histone deacetylase 3
  Ki: 15 nM
Histone deacetylase 4
  Ki: 6.6 nM
Histone deacetylase 5
  Ki: 6.6 nM
[3]
  Ki: 348 nM
Histone deacetylase 7
  Ki: 41 nM
Histone deacetylase 8
  Ki: 57 nM
Histone deacetylase 9
  Ki: 16 nM
[4]
  Ki: 29 nM
Histone deacetylase 11
  Ki: 14 nM
Histone deacetylase 1 [5]
  IC50: 36 nM
Histone deacetylase 2
  Ki: 18 nM

## CCCCCCc1nc2cc(/C=C/C(=O)NO)ccc2n1CCNCC.Cl.Cl
[6]
  half-life: 51 min
[7]
  half-life: 1.6 min
[8]
  half-life: 1.1 min
[9]
  half-life: 48 min
[10]
  solubility kinetic: > 200 µM
[11]
  Papp A→B: 0.97 ×10⁻⁶ cm/s
[12]
  Papp B→A: 10.5 ×10⁻⁶ cm/s
Mus musculus [13]
  Activity: Non-toxic
Mus musculus [14]
  Activity: Non-toxic
Mus musculus [15]
  Activity: Non-toxic
HCT-116 [16]
  inhibition in vivo at 50 mg/kg: -9%
HCT-116 [17]
  inhibition in vivo at 100 mg/kg: -7%
HCT-116 [18]
  inhibition in vivo at 200 mg/kg: 41%

## CCCCc1nc2cc(/C=C/C(=O)NO)ccc2n1CCNC(C)C.Cl.Cl
[6]
  half-life: > 60 min
[7]
  half-life: 36 min
[8]
  half-life: 3.3 min
[9]
  half-life: > 60 min
[10]
  solubility kinetic: > 200 µM
Mus musculus [19]
  Activity: 7.9%
Mus musculus [13]
  Activity: Non-toxic
Mus musculus [14]
  Activity: Non-toxic
HCT-116 [16]
  inhibition in vivo at 50 mg/kg: 19%
HCT-116 [17]
  inhibition in vivo at 100 mg/kg: 60%
HCT-116 [18]
  inhibition in vivo at 200 mg/kg: 90%
Mus musculus [20]
  Activity: 5%

## CN(C)CC(C)(C)Cn1c(CCc2ccccc2)nc2cc(/C=C/C(=O)NO)ccc21
COLO 205
  IC50: 110 nM
Histone deacetylase 1 [2]
  Ki: 15 nM
Histone deacetylase 3
  Ki: 11 nM
Histone deacetylase 4
  Ki: 10 nM
Histone deacetylase 5
  Ki: 16 nM
[3]
  Ki: 23 nM
Histone deacetylase 9
  Ki: 21 nM
[4]
  Ki: 23 nM
Histone deacetylase 11
  Ki: 16 nM
[6]
  half-life: 60 min
Liver
  t1/2: 17 min
Histone deacetylase 1 [5]
  IC50: 42 nM
Histone deacetylase 2
  Ki: 39 nM

## O=C(/C=C/c1ccc2c(c1)nc(CCc1ccccc1)n2CCN1CCCCC1)NO
COLO 205
  IC50: 87 nM
Histone deacetylase 1 [2]
  Ki: 12 nM
Histone deacetylase 3
  Ki: 11 nM
Histone deacetylase 4
  Ki: 8.7 nM
Histone deacetylase 5
  Ki: 18 nM
[3]
  Ki: 27 nM
Histone deacetylase 9
  Ki: 24 nM
[4]
  Ki: 23 nM
Histone deacetylase 11
  Ki: 14 nM
[6]
  half-life: 90 min
Liver
  t1/2: 35 min
Histone deacetylase 1 [5]
  IC50: 23 nM
Histone deacetylase 2
  Ki: 39 nM
